# System: 252836-082-R-J2-PDC tumor spheroids, viability
# Assay: Anticancer human tumor 252836-082-R-J2-PDC patient-derived head and neck squamous cell carcinoma cell line growth inhibition [PI3K]
# Details: spheroids with HUVEC and MSC; for viability, T/C: stronger effect = lower value
# How it was run: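 Targeted small molecules plus PI3K inhibitors, half-log dose series from Cmax (default top 10 microM), were applied to heterotypic spheroids of cancer cells with HUVEC and MSCs. Viability indicated growth inhibition.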
# [1] = curve of first compound, second compound 0.0316 µM
# [2] = curve of first compound, second compound 0.1 µM
# [3] = curve of first compound, second compound 0.316 µM
# [4] = curve of first compound, second compound 1 µM
# [5] = second compound 0.0316 µM, first compound 0.000316 µM
# [6] = second compound 0.0316 µM, first compound 0.001 µM
# [7] = second compound 0.0316 µM, first compound 0.00316 µM
# [8] = second compound 0.0316 µM, first compound 0.01 µM
# [9] = second compound 0.0316 µM, first compound 0.0316 µM
# [10] = second compound 0.0316 µM, first compound 0.1 µM
# [11] = second compound 0.1 µM, first compound 0.000316 µM
# [12] = second compound 0.1 µM, first compound 0.001 µM
# [13] = second compound 0.1 µM, first compound 0.00316 µM
# [14] = second compound 0.1 µM, first compound 0.01 µM
# [15] = second compound 0.1 µM, first compound 0.0316 µM
# [16] = second compound 0.1 µM, first compound 0.1 µM
# [17] = second compound 0.316 µM, first compound 0.000316 µM
# [18] = second compound 0.316 µM, first compound 0.001 µM
# [19] = second compound 0.316 µM, first compound 0.00316 µM
# [20] = second compound 0.316 µM, first compound 0.01 µM
# [21] = second compound 0.316 µM, first compound 0.0316 µM
# [22] = second compound 0.316 µM, first compound 0.1 µM
# [23] = second compound 1 µM, first compound 0.000316 µM
# [24] = second compound 1 µM, first compound 0.001 µM
# [25] = second compound 1 µM, first compound 0.00316 µM
# [26] = second compound 1 µM, first compound 0.01 µM
# [27] = second compound 1 µM, first compound 0.0316 µM
# [28] = second compound 1 µM, first compound 0.1 µM
# 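Note: spheroids exposed to agents for seven days before readout.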
# 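Throughout, for viability, T/C: percent of vehicle DMSO control viability so 100% = untreated growth.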
compound,measurement,setting,value
Cc1nc(NC(=O)N2CCCC2C(N)=O)sc1-c1ccnc(C(C)(C)C(F)(F)F)c1 (stereo unspecified),"viability, T/C",compound 0.0316 µM,86.2% [middle of 8 runs]
same,"viability, T/C",compound 0.1 µM,88.9% [middle of 8 runs]
same,"viability, T/C",compound 0.316 µM,81% [middle of 8 runs]
same,"viability, T/C",compound 1 µM,62.9% [middle of 8 runs]
same,"viability, T/C",compound 3.16 µM,48% [middle of 8 runs]
same,"viability, T/C",compound 10 µM,35% [middle of 8 runs]
same,IC50,"compound alone, run of 06/12/2023",2.64 µM [middle of 8 runs]
Cn1ncnc1[C@H]1c2n[nH]c(=O)c3cc(F)cc(c23)N[C@@H]1c1ccc(F)cc1 + CC(Nc1ccc2c(c1)OCCn1cc(N3C(=O)OCC3C(F)F)nc1-2)C(N)=O,IC50,"curve of first compound, second compound 0.00316 µM",> 100 nM
same,IC50,"curve of first compound, second compound 0.01 µM",> 100 nM
same,IC50,[1],> 100 nM
same,IC50,[2],46.7 nM
same,IC50,[3],6.75 nM
same,IC50,[4],< 0.316 nM
same,"viability, T/C","second compound 0.00316 µM, first compound 0.000316 µM",97.7%
same,"viability, T/C","second compound 0.00316 µM, first compound 0.001 µM",86.2%
same,"viability, T/C","second compound 0.00316 µM, first compound 0.00316 µM",78.7%
same,"viability, T/C","second compound 0.00316 µM, first compound 0.01 µM",86.3%
same,"viability, T/C","second compound 0.00316 µM, first compound 0.0316 µM",79.2%
same,"viability, T/C","second compound 0.00316 µM, first compound 0.1 µM",57.5%
same,"viability, T/C","second compound 0.01 µM, first compound 0.000316 µM",85.6%
same,"viability, T/C","second compound 0.01 µM, first compound 0.001 µM",89.5%
same,"viability, T/C","second compound 0.01 µM, first compound 0.00316 µM",89%
same,"viability, T/C","second compound 0.01 µM, first compound 0.01 µM",84.5%
same,"viability, T/C","second compound 0.01 µM, first compound 0.0316 µM",72.8%
same,"viability, T/C","second compound 0.01 µM, first compound 0.1 µM",53%
same,"viability, T/C",[5],85.9%
same,"viability, T/C",[6],93.6%
same,"viability, T/C",[7],71.2%
same,"viability, T/C",[8],64.4%
same,"viability, T/C",[9],72.6%
same,"viability, T/C",[10],50.3%
same,"viability, T/C",[11],67.9%
same,"viability, T/C",[12],71.8%
same,"viability, T/C",[13],68.7%
same,"viability, T/C",[14],59.5%
same,"viability, T/C",[15],54.3%
same,"viability, T/C",[16],42.1%
same,"viability, T/C",[17],52.8%
same,"viability, T/C",[18],58.1%
same,"viability, T/C",[19],57.6%
same,"viability, T/C",[20],44%
same,"viability, T/C",[21],41%
same,"viability, T/C",[22],30.8%
same,"viability, T/C",[23],50.6%
same,"viability, T/C",[24],45.4%
same,"viability, T/C",[25],50.1%
same,"viability, T/C",[26],36%
same,"viability, T/C",[27],31.9%
same,"viability, T/C",[28],27.2%
CC(C)n1nc(-c2ccc3oc(N)nc3c2)c2c(N)ncnc21 + Cc1nc(NC(=O)N2CCCC2C(N)=O)sc1-c1ccnc(C(C)(C)C(F)(F)F)c1,IC50,[1],32.2 nM
same,IC50,[2],27.6 nM
same,IC50,[3],21.2 nM
same,IC50,[4],12.6 nM
same,IC50,"curve of first compound, second compound 3.16 µM",< 0.316 nM
same,IC50,"curve of first compound, second compound 10 µM",< 0.316 nM
same,"viability, T/C",[5],84.3%
same,"viability, T/C",[6],76%
same,"viability, T/C",[7],98%
same,"viability, T/C",[8],71.5%
same,"viability, T/C",[9],51.7%
same,"viability, T/C",[10],21.3%
same,"viability, T/C",[11],83.8%
same,"viability, T/C",[12],83.1%
same,"viability, T/C",[13],79.8%
same,"viability, T/C",[14],63.9%
same,"viability, T/C",[15],49%
same,"viability, T/C",[16],23%
same,"viability, T/C",[17],82.1%
same,"viability, T/C",[18],73.1%
same,"viability, T/C",[19],75.8%
same,"viability, T/C",[20],59.6%
same,"viability, T/C",[21],44.4%
same,"viability, T/C",[22],20.7%
same,"viability, T/C",[23],56.5%
same,"viability, T/C",[24],53.4%
same,"viability, T/C",[25],61.6%
same,"viability, T/C",[26],48.7%
same,"viability, T/C",[27],42.6%
same,"viability, T/C",[28],19.5%
same,"viability, T/C","second compound 3.16 µM, first compound 0.000316 µM",43.2%
same,"viability, T/C","second compound 3.16 µM, first compound 0.001 µM",55.2%
same,"viability, T/C","second compound 3.16 µM, first compound 0.00316 µM",47.5%
same,"viability, T/C","second compound 3.16 µM, first compound 0.01 µM",40%
same,"viability, T/C","second compound 3.16 µM, first compound 0.0316 µM",28.6%
same,"viability, T/C","second compound 3.16 µM, first compound 0.1 µM",17.2%
same,"viability, T/C","second compound 10 µM, first compound 0.000316 µM",33.2%
same,"viability, T/C","second compound 10 µM, first compound 0.001 µM",31.1%
same,"viability, T/C","second compound 10 µM, first compound 0.00316 µM",29.6%
same,"viability, T/C","second compound 10 µM, first compound 0.01 µM",35.4%
same,"viability, T/C","second compound 10 µM, first compound 0.0316 µM",18.8%
same,"viability, T/C","second compound 10 µM, first compound 0.1 µM",8.12%

# Reference: PubChem BioAssay AID1963985 (Molecular Pharmacology Branch, DTP, NCI, 2024)
